Data on 20 molecules can be found in patent US20240368173A1, “TRICYCLIC GPR65 MODULATORS” (PATHIOS THERAPEUTICS LIMITED, priority 2021, published 2024).

The first assay deals with human recombinant GPR65 (Homo sapiens, UniProt Q8IYL9). Briefly: Human GPR65 cAMP HTRF antagonist assay. It is filed as cell-based.
Sequence of human recombinant GPR65 (Q8IYL9 whole entry): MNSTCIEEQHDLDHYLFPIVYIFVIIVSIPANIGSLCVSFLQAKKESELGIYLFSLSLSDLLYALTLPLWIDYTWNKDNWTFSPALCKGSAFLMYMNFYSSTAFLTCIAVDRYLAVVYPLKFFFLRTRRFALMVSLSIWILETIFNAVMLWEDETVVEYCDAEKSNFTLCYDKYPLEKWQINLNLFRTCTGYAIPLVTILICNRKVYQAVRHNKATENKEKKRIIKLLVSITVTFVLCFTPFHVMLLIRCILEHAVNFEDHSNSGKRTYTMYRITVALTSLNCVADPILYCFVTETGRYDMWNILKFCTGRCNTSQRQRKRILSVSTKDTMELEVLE
Conditions: not given
A digest of the protocol:
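Antagonism measured as suppression of the cAMP rise when pH is dropped to 7.2 (control wells pH 7.9) in 1321N1 cells stably carrying human GPR65. Cells in KRH with 1 mM IBMX and 200 μM EDTA saw compound 30 min, then acid stimulation 30 min; HTRF cAMP detection, normalised, 4-parameter logistic IC50.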
A general note: In TR-FRET formats the signal depends on donor and acceptor labels being close together.
For the molecule `O=C(Nc1cc(Cl)c(-c2cnn(CC3CC3)c2)cc1F)N1[C@H]2CC[C@@H]1c1n[nH]c(=O)cc1C2` [Compound 144, (6S,9R)-N-(5-Chloro-4-(1-(cyclopropylmethyl)-1H-pyrazol-4-yl)-2-fluorophenyl)-3-oxo-3,5,6,7,8,9-hexahydro-2H-6,9-epiminocyclohepta[c]pyridazine-10-carboxamide], the IC50 (commonly the concentration that gives 50% inhibition) was less than 0.5 µM.
In the case of `COc1ccc(-c2cc(F)c(NC(=O)N3[C@H]4CC[C@@H]3c3n[nH]c(=O)cc3C4)cc2F)cn1` [Compound 247, (6S,9R)-N-(2,5-Difluoro-4-(6-methoxypyridin-3-yl)phenyl)-3-oxo-3,5,6,7,8,9-hexahydro-2H-6,9-epiminocyclohepta[c]pyridazine-10-carboxamide], the IC50 is less than 0.5 µM.
Turning to `O=C(Nc1cc(F)c(-c2ccc(C(F)(F)F)nc2)cc1F)N1[C@H]2CC[C@@H]1c1n[nH]c(=O)cc1C2` [Compound 286, (6S,9R)-N-(2,5-Difluoro-4-(6-(trifluoromethyl)pyridin-3-yl)phenyl)-3-oxo-3,5,6,7,8,9-hexahydro-2H-6,9-epiminocyclohepta[c]pyridazine-10-carboxamide], the IC50 is less than 0.5 µM.
Same read-out and setting: as for `O=C(Nc1cc(Cl)c(Cl)cc1F)N1[C@H]2CC[C@@H]1c1c(O)cnc(F)c1C2` [Compound 104, (5R,8S)—N-(4,5-Dichloro-2-fluorophenyl)-1-fluoro-4-hydroxy-6,7,8,9-tetrahydro-5H-5,8-epiminocyclohepta[c]pyridine-10-carboxamide], the figure is less than 0.5 µM; as for `O=C(Nc1cc(Cl)c(Cl)cc1F)N1[C@H]2CC[C@@H]1c1ncc(F)cc1C2` [Compound 98, (6S,9R)-N-(4,5-Dichloro-2-fluorophenyl)-3-fluoro-6,7,8,9-tetrahydro-5H-6,9-epiminocyclohepta[b]pyridine-10-carboxamide], less than 0.5 µM.
Regarding `Cc1nc2ccc(-c3cc(F)c(NC(=O)N4[C@H]5CC[C@@H]4c4c[nH]c(=O)cc4C5)cc3Cl)cc2o1` [Compound 206, (6S,9R)-N-(5-Chloro-2-fluoro-4-(2-methylbenzo[d]oxazol-6-yl)phenyl)-3-oxo-3,5,6,7,8,9-hexahydro-2H-6,9-epiminocyclohepta[c]pyridine-10-carboxamide], the IC50 was less than 0.5 µM.
For the molecule `O=C(Nc1cc(Cl)c(-c2ccc(OCCN3CCCCC3)nc2)cc1F)N1[C@H]2CC[C@@H]1c1ccnc(F)c1C2` [Compound 220, (5R,8S)-N-(5-Chloro-2-fluoro-4-(6-(2-(piperidin-1-yl)ethoxy)pyridin-3-yl)phenyl)-1-fluoro-6,7,8,9-tetrahydro-5H-5,8-epiminocyclohepta[c]pyridine-10-carboxamide], the IC50 was less than 0.5 µM.
Still for that read-out and setting: as for `O=C(Nc1cc(-c2ccc3nonc3c2)c(C(F)(F)F)cc1F)N1[C@H]2CC[C@@H]1c1ccnc(F)c1C2` [Compound 253, (5R,8S)-N-(5-(benzo[c][1,2,5]oxadiazol-5-yl)-2-fluoro-4-(trifluoromethyl)phenyl)-1-fluoro-6,7,8,9-tetrahydro-5H-5,8-epiminocyclohepta[c]pyridine-10-carboxamide], the figure is less than 0.5 µM.
The same measure, in the same setting: next, `O=C(Nc1cc(Cl)c(-c2ccccn2)cc1F)N1[C@H]2CC[C@@H]1c1n[nH]c(=O)cc1C2` [Compound 195, (6S,9R)-N-(5-Chloro-2-fluoro-4-(pyridin-2-yl)phenyl)-3-oxo-3,5,6,7,8,9-hexahydro-2H-6,9-epiminocyclohepta[c]pyridazine-10-carboxamide]: less than 0.5 µM; `O=C(Nc1cc(Cl)c(-c2ccncc2F)cc1F)N1[C@H]2CC[C@@H]1c1n[nH]c(=O)cc1C2` [Compound 138, (6S,9R)-N-(5-Chloro-2-fluoro-4-(3-fluoropyridin-4-yl)phenyl)-3-oxo-3,5,6,7,8,9-hexahydro-2H-6,9-epiminocyclohepta[c]pyridazine-10-carboxamide]: less than 0.5 µM.
`O=C(Nc1cc(Cl)c(-c2ccc3csnc3c2)cc1F)N1[C@H]2CC[C@@H]1c1n[nH]c(=O)cc1C2` [Compound 270, (6S,9R)-N-(4-(Benzo[c]isothiazol-6-yl)-5-chloro-2-fluorophenyl)-3-oxo-3,5,6,7,8,9-hexahydro-2H-6,9-epiminocyclohepta[c]pyridazine-10-carboxamide]: the IC50 is less than 0.5 µM.
As to `O=C(Nc1cc(Cl)c(-c2ccncc2)cc1F)N1[C@H]2CC[C@@H]1c1n[nH]c(=O)cc1C2` [Compound 173, (6S,9R)-N-(5-Chloro-2-fluoro-4-(pyridin-4-yl)phenyl)-3-oxo-3,5,6,7,8,9-hexahydro-2H-6,9-epiminocyclohepta[c]pyridazine-10-carboxamide], the IC50 was less than 0.5 µM.
For the molecule `O=C(Nc1cc(Cl)c(-c2ccc(OCC(F)(F)F)nc2)cc1F)N1[C@H]2CC[C@@H]1c1n[nH]c(=O)cc1C2` [Compound 215, (6S,9R)-N-(5-Chloro-2-fluoro-4-(6-(2,2,2-trifluoroethoxy)pyridin-3-yl)phenyl)-3-oxo-3,5,6,7,8,9-hexahydro-2H-6,9-epiminocyclohepta[c]pyridazine-10-carboxamide], the IC50 was less than 0.5 µM.
Take `Cc1nc2cc(-c3cc(F)c(NC(=O)N4[C@H]5CC[C@@H]4c4n[nH]c(=O)cc4C5)cc3Cl)ccc2o1` [Compound 234, (6S,9R)-N-(5-Chloro-2-fluoro-4-(2-methylbenzo[d]oxazol-5-yl)phenyl)-3-oxo-3,5,6,7,8,9-hexahydro-2H-6,9-epiminocyclohepta[c]pyridazine-10-carboxamide]: the 50% inhibitory concentration (IC50) is less than 0.5 µM.

The same assay, now with this note: 1321N1-hrGPR65 cells, cAMP HTRF, assay pH 7.2; read-out: hGPR65 IC50 (Activity of selected compounds according to the invention).
For `O=C(Nc1cc(Cl)c(Cl)cc1F)N1[C@H]2CC[C@@H]1c1nccc(F)c1C2` [Compound 91, (6S,9R)-N-(4,5-dichloro-2-fluorophenyl)-4-fluoro-6,7,8,9-tetrahydro-5H-6,9-epiminocyclohepta[b]pyridine-10-carboxamide], the IC50 fell in the range of 0.5 to 5 µM.
Same read-out and setting: next, `O=C(Nc1cc(Br)c(Cl)cc1F)N1[C@@H]2CC[C@H]1c1c[nH]c(=O)nc1C2` [Compound 27, (5S,8R)-N-(5-Bromo-4-chloro-2-fluorophenyl)-2-oxo-3,5,6,7,8,9-hexahydro-2H-5,8-epiminocyclohepta[d]pyrimidine-10-carboxamide]: 0.5 to 5 µM; `CS(=O)(=O)c1cncc(-c2cc(F)c(NC(=O)N3[C@H]4CC[C@@H]3c3n[nH]c(=O)cc3C4)cc2Cl)c1` [Compound 122, (6S,9R)-N-(5-Chloro-2-fluoro-4-(5-(methylsulfonyl)pyridin-3-yl)phenyl)-3-oxo-3,5,6,7,8,9-hexahydro-2H-6,9-epiminocyclohepta[c]pyridazine-10-carboxamide]: 0.5 to 5 µM.
With `COc1cnccc1-c1cc(F)c(NC(=O)N2[C@H]3CC[C@@H]2c2n[nH]c(=O)cc2C3)cc1Cl` [Compound 299, (6S,9R)-N-(5-Chloro-2-fluoro-4-(3-methoxypyridin-4-yl)phenyl)-3-oxo-3,5,6,7,8,9-hexahydro-2H-6,9-epiminocyclohepta[c]pyridazine-10-carboxamide], the IC50 was 0.5 to 5 µM.
In the case of `O=C(Nc1ccc(C2CCOCC2)cc1)N1[C@H]2CC[C@@H]1c1ccnc(F)c1C2` [Compound 57, (5R,8S)-1-Fluoro-N-(4-(tetrahydro-2H-pyran-4-yl)phenyl)-6,7,8,9-tetrahydro-5H-5,8-epiminocyclohepta[c]pyridine-10-carboxamide], the IC50 is 0.5 to 5 µM.
On the same count and under the same terms, as for `O=C(Nc1cc(Cl)c(Cl)cc1F)N1[C@@H]2CC[C@H]1c1ncc(F)cc1C2` [Compound 95, (6R,9S)-N-(4,5-Dichloro-2-fluorophenyl)-3-fluoro-6,7,8,9-tetrahydro-5H-6,9-epiminocyclohepta[b]pyridine-10-carboxamide], the figure is greater than 5 µM.
